We go through seven molecules from ChEMBL document CHEMBL3102775, “UK-1 and structural analogs are potent inhibitors of hepatitis C virus replication” (Bioorg Med Chem Lett, 2014).

The structures appear in SMILES notation. Activity calls are given as the source filed them. No cut-off for these calls is given here. A value given as a limit tells only on which side of the number the result lay.

Series [1] can be described thus: Binding affinity to double stranded RNA assessed as effect on Eco-RI-digested pT7-7 plasmid mobilization at 20 to 500 uM after 60 mins by agarose gel mobility assay.
Series [2] in a line: Inhibition of HCV NS3 NTPase/helicase domain expressed in Escherichia coli BL21 using dsRNA as substrate assessed as strand separation of [32P]-labeled oligonucleotides after 30 mins by SDS-gel electrophoresis. Further details: species or system Hepacivirus hominis.
The nature of series [3]: Cytotoxicity against human Huh7ET cells by neutral red assay. The series is classed as cell-based, Huh-7.
The nature of series [4]: Binding affinity to double stranded DNA assessed as effect on Eco-RI-digested pT7-7 plasmid mobilization at 20 to 500 uM after 60 mins by agarose gel mobility assay.
Series [5] is described as follows: Inhibition of HCV ATPase activity of NS3 NTPase/helicase domain expressed in Escherichia coli BL21 after 30 mins by thin layer chromatography in presence of [gamma-32P]ATP. Further details: species or system Hepacivirus hominis.
In series [6] the test system is Hepatitis C virus. As to the kind of experiment: Antiviral activity against HCV infected in human Huh7ET cells assessed as inhibition of viral replication by luciferase reporter gene assay/RNA blot hybridization analysis. The series is classed as functional, organism-based, Hepacivirus hominis. The following applies: Huh-7. In general terms: In a reporter assay the amount or activity of a reporter protein is the signal.

Series [7] is described as follows: Inhibition of HCV NS3 NTPase/helicase domain expressed in Escherichia coli BL21 using dsDNA as substrate assessed as strand separation of [32P]-labeled oligonucleotides after 30 mins by SDS-gel electrophoresis. Further details: species or system Hepacivirus hominis.
Series [8] can be described thus: Selectivity index, ratio of CC50 for human Huh7ET cells to EC50 for HCV infected in human Huh7ET cells. Further details: species or system Huh-7.
The nature of series [9]: Inhibition of Dengue virus helicase.
Another series relates to Hepacivirus hominis. As to the kind of experiment: Inhibition of HCV NS5B RNA dependent RNA polymerase at 100 uM.
The test system of series [10] is Human immunodeficiency virus 1. As to the kind of experiment: Antiviral activity against HIV1. The series is classed as functional, organism-based.
Series [11] is described as follows: Selectivity index, ratio of CC50 for human Huh7ET cells by luciferase reporter gene assay to EC50 for HCV infected in human Huh7ET cells by luciferase reporter gene assay. Further details: species or system Huh-7.
Series [12] can be described thus: Cytotoxicity against human Huh7ET cells by luciferase reporter gene assay. It is filed as cell-based. The following applies: huh-7.
The subject of series [13] is Hepatitis C virus. As to the kind of experiment: Antiviral activity against HCV infected in human Huh7ET cells assessed as inhibition of viral replication by luciferase reporter gene assay. The series is classed as functional, organism-based, Hepacivirus hominis. The note with it: Huh-7.

Consider `COC(=O)c1cccc2oc(-c3ccc4ccc(OCc5ccccc5)cc4c3O)nc12`, for which the outcome in [1], in [4] and in series [10] was inactive. Further, the IC50 (commonly the concentration that inhibits the measured activity by half) in series [2] is 20 µM; in series [5], over 1200 µM; in [7], 2.6 µM; in [9] it was over 700 µM. The CC50 – broadly, the concentration giving 50% cytotoxicity – in [3] (Huh7ET cells) was over 20 µM. Besides, the EC50 – broadly, the concentration that produces a half-maximal response – with Hepatitis C virus [6] is 0.54 µM. Moreover, in series [8], the “Ratio CC50/EC50” value is listed as over 37. The inhibition – broadly, the change of the read-out against control, counted positive when it falls – in the series on Hepacivirus hominis was under 30%.

Take `COC(=O)c1cccc2oc(-c3ccc4ccccc4c3O)nc12`: the IC50 in series [2] is 590 µM; in series [5], over 1200 µM; in series [7], 540 µM; in series [9], over 700 µM. Also, the midpoint of cytotoxicity in series [3] (huh-7), the CC50, lay at 2.5 µM. For the same molecule, the EC50 with Hepatitis C virus [6] was found to be 0.53 µM. The “Ratio CC50/EC50” value in series [8] is given as 4.7. In addition, in the series on Hepacivirus hominis, the inhibition is under 30%. Besides, in series [10], the result was inactive.

On to `CNC(=O)c1cccc2oc(-c3ccccc3O)nc12`, for which the “Ratio CC50/EC50” value in [11] is 4.5. In addition, the IC50 in series [2] was over 1800 µM; in series [5] it was over 1200 µM; in series [7], over 1800 µM; in series [9], over 700 µM. The same molecule yielded a CC50 in series [12] of 6.3 µM. For the same molecule, the EC50 in the series with Hepatitis C virus [13] came to 1.4 µM. The inhibition in the series with Hepacivirus hominis is under 30%. In addition, the result in series [10] was inactive.

With `O=C(O)c1cccc2oc(-c3ccccc3O)nc12`, the IC50 is over 1800 µM in series [2], over 1200 µM in [5], over 1800 µM in [7] and over 700 µM in [9]. Also, the CC50 in series [3] (huh-7) is 3.5 µM. The EC50 in the series on Hepatitis C virus [6] stood at 0.53 µM. In addition, the “Ratio CC50/EC50” value in series [8] was found to be 6.6. In addition, the inhibition in the series on Hepacivirus hominis is under 30%. Further, in [10], the outcome was inactive.

Take `COC(=O)c1cccc2oc(-c3ccccc3O)nc12`: the IC50 is over 1800 µM in [2], over 1200 µM in [5], over 1800 µM in [7] and over 700 µM in [9]. This molecule also gave a CC50 in series [3] (huh-7) of 5.4 µM. Further, the EC50 in the series on Hepatitis C virus [6] was 0.5 µM. Also, the “Ratio CC50/EC50” value in series [8] is 11. In the series with Hepacivirus hominis, this molecule returned an inhibition of under 30%. The outcome in [10] was inactive.

Take `COC(=O)c1cccc2oc(-c3ccc4c(OCc5ccccc5)cccc4c3O)nc12`: the result in series [1], in series [4] and in series [10] was inactive. Moreover, the IC50 in series [2] was 20 µM; in series [5], over 1200 µM; in series [7], 3.8 µM; in series [9], over 700 µM. In [3] (Huh7ET cells), this molecule registered a CC50 of over 20 µM. The EC50 in the series on Hepatitis C virus [6] is 2.1 µM. Moreover, in series [8], the “Ratio CC50/EC50” value was over 10. Besides, the inhibition in the series on Hepacivirus hominis is under 30%.

Take `COC(=O)c1cccc2oc(-c3cccc4oc(-c5ccccc5O)nc34)nc12`: the IC50 in series [2] is over 1200 µM; in [5], over 1200 µM; in series [7], 380 µM; in series [9] it was over 700 µM. The CC50 in series [3] (huh-7) came to 17 µM. For the same molecule, in the series on Hepatitis C virus [6], the EC50 stood at 0.77 µM. Also, in [8], the “Ratio CC50/EC50” value is 22. Besides, the inhibition in the series on Hepacivirus hominis is under 30%.
